Reference: patent publication US9017689B2, “Peptides for vaccine against birch allergy” (Circassia Limited, priority 2010, dated 2015)
Like-named read-outs stand apart in the source and are kept apart here. Ends that are not written are not given here.

Assay: Solubility screening in trehalose matrices pH 2.65 to 7.03;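 also: test items are peptides, each checked for solubility in every trehalose matrix, the matrices made up in distilled deionised water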
Type: physicochemical
Details: for solubility: read-out: Solubility [mg per ml]
[1] = 2 mM HCl and 260 mM trehalose dihydrate, pH 2.65
[2] = 10 mM potassium dihydrogen phosphate and 260 mM trehalose dihydrate, pH 6.03
[3] = 10 mM potassium dihydrogen phosphate and 260 mM trehalose dihydrate, pH 7.03
[4] = 10 mM sodium citrate and 260 mM trehalose dihydrate, pH 3.01
[5] = 10 mM sodium citrate and 260 mM trehalose dihydrate, pH 3.99
[6] = 10 mM sodium citrate and 260 mM trehalose dihydrate, pH 5.02
[7] = 10 mM sodium citrate and 260 mM trehalose dihydrate, pH 6.01
[8] = aqueous buffer, 10 mM potassium dihydrogen phosphate and 260 mM trehalose dihydrate, pH 6.03
[9] = aqueous buffer, 10 mM potassium dihydrogen phosphate and 260 mM trehalose dihydrate, pH 7.03
[10] = aqueous buffer, 10 mM sodium citrate and 260 mM trehalose dihydrate, pH 3.01
[11] = aqueous buffer, 10 mM sodium citrate and 260 mM trehalose dihydrate, pH 3.99
[12] = aqueous buffer, 10 mM sodium citrate and 260 mM trehalose dihydrate, pH 5.02
[13] = aqueous buffer, 10 mM sodium citrate and 260 mM trehalose dihydrate, pH 6.01
[14] = water, 2 mM HCl and 260 mM trehalose dihydrate, pH 2.65

Row | Sequence | Comments (solubility on preparation) [1] | Solubility [mg per ml 'as is'] [1] [mg per ml ‘as is’] | Solubility [μmol per ml] [1] [μmol per ml] | Solubility after 24 Hours [1] | Commute (solubility on preparation) [2] | Solubility [mg per ml 'as is'] [2] [mg per ml ‘as is’] | Solubility [μmol per ml] [2] [μmol per ml] | Solubility after 24 Hours [2] | Comments (solubility on preparation) [3] | Solubility [mg per ml 'as is'] [3] [mg per ml ‘as is’] | Solubility [μmol per ml] [3] [μmol per ml] | Solubility after 24 Hours [3] | Comments (solubility on preparation) [4] | Solubility [mg per ml 'as is'] [4] [mg per ml ‘as is’] | Solubility [μmol per ml] [4] [μmol per ml] | Solubility after 24 Hours [4] | Solubility [mg per ml 'as is'] [5] [mg per ml ‘as is’] | Solubility [μmol per ml] [5] [μmol per ml] | Comments (solubility on preparation) [6] | Solubility [mg per ml 'as is'] [6] [mg per ml ‘as is’] | other results
1 | PGTIKKISFPEGFPFKYV [Bir04] | Completely dissolved | 20.50 | 8.639 | Completely dissolved | Completely dissolved | 9.86 | 4.155 | Completely dissolved | Completely dissolved | 21.50 | 9.061 | Completely dissolved | Completely dissolved | 22.58 | 9.516 | Completely dissolved | 20.36 | 8.580 | Completely dissolved | 21.52 | Comments (solubility on preparation) [5]: Completely dissolved; Solubility after 24 Hours [5]: Completely dissolved; Solubility [μmol per ml] [6]: 9.069 μmol per ml; Solubility after 24 Hours [6]: Completely dissolved; Comments (solubility on preparation) [7]: Completely dissolved.; Solubility [mg per ml 'as is'] [7]: 10.11 mg per ml ‘as is’; Solubility [μmol per ml] [7]: 4.261 μmol per ml; Solubility after 24 Hours [7]: Completely dissolved.; solubility [8]: ≥ 8.54 mg/mL; solubility [9]: ≥ 18.6 mg/mL; solubility [10]: ≥ 19.6 mg/mL; solubility [11]: ≥ 17.6 mg/mL; solubility [12]: ≥ 18.6 mg/mL; solubility [13]: ≥ 8.76 mg/mL; solubility [14]: ≥ 17.8 mg/mL
2 | KEMGETLLRAVESYLLAHS [Bir09B] | Completely dissolved | 12.20 | 4.942 | Completely dissolved | Completely dissolved in | 0.36 | 0.147 | Precipitated out, | Completely dissolved | 21.70 | 8.790 | Completely dissolved | Completely dissolved | 11.62 | 4.707 | Completely dissolved | 11.40 | 4.618 | Completely dissolved | 12.75 | Comments (solubility on preparation) [5]: Completely dissolved; Solubility after 24 Hours [5]: Completely dissolved; Solubility [μmol per ml] [6]: 5.165 μmol per ml; Solubility after 24 Hours [6]: Completely dissolved; solubility [8]: ≥ 0.315 mg/mL; solubility [9]: ≥ 18.9 mg/mL; solubility [10]: ≥ 10.1 mg/mL; solubility [11]: ≥ 9.92 mg/mL; solubility [12]: ≥ 11.1 mg/mL; solubility [14]: ≥ 10.6 mg/mL
3 | SNEIKIVATPEGGSILK [Bir07C] | Completely dissolved | 11.48 | 5.747 | Completely dissolved | Completely dissolved in | 0.42 | 0.208 | Precipitated out, | Completely dissolved | 6.70 | 3.354 | Completely dissolved | Completely dissolved | 1.30 | 0.653 | Completely dissolved | 0.38 | 0.188 | Completely dissolved | 0.86 | Solubility [μmol per ml] [6]: 0.433 μmol per ml; Solubility after 24 Hours [6]: Completely dissolved; Comments (solubility on preparation) [7]: Completely dissolved in; Solubility [mg per ml 'as is'] [7]: 0.35 mg per ml ‘as is’; Solubility [μmol per ml] [7]: 0.174 μmol per ml; Solubility after 24 Hours [7]: Precipitated out,; solubility [8]: ≥ 0.365 mg/mL; solubility [9]: ≥ 5.89 mg/mL; solubility [10]: ≥ 1.15 mg/mL; solubility [11]: ≥ 0.33 mg/mL; solubility [12]: ≥ 0.76 mg/mL; solubility [13]: ≥ 0.306 mg/mL; solubility [14]: ≥ 10.1 mg/mL
